According to publication PMC3777854 (Journal of clinical pharmacology, 2013):
Entries after “also recorded” stand apart in the source; their conditions may differ. Marks after values point to notes of the source that are not given here. Square brackets hold non-standard residues; d marks the D form. Peptide text beside a SMILES is read from it. * marks the point of attachment. Dolaproine = CO[C@@H]([C@@H]1CCCN1)[C@@H](C)C(=O)O; Dil = CC[C@H](C)[C@H](NC)[C@@H](CC(=O)O)OC; X1 = C[C@@H](N*)[C@@H](O)c1ccccc1; NMeV = CN[C@H](C(=O)O)C(C)C

What was measured:
[1] = Excretion of MMAE in urine and feces; assay type: in vivo, human
[2] = test system: CYP3A; test: Effect of rifampin on brentuximab vedotin; assay type: in vivo, human; details: for MMAE Tmax: median (range)
[3] = test system: CYP3A; details: not of this paper; cited from earlier work
[4] = on a mass basis; cited from earlier work
[5] = test system: CYP3A; test: Effect of ketoconazole on brentuximab vedotin; assay type: in vivo, human; details: for MMAE Tmax: median (range); for MMAE Tmax / MMAE Cmax: n=16
[6] = test system: CYP3A; test: Effect of brentuximab vedotin on midazolam PK; details: brentuximab vedotin 1.8 mg/kg; midazolam as probe substrate

SMILES: CC[C@H](C)[C@@H]([C@@H](CC(=O)N1CCC[C@H]1[C@H](OC)[C@@H](C)C(=O)N[C@H](C)[C@@H](O)c1ccccc1)OC)N(C)C(=O)[C@@H](NC(=O)[C@@H](NC)C(C)C)C(C)C [MMAE, monomethyl auristatin E] (H-[NMeV]V[Dil][Dolaproine]-X1)
- number of MMAE metabolites detected in urine and feces ([1]; after concentrating the liquid-liquid extracts ten-fold, LC-MS/MS): 8
- concentration of MMAE in excreta relative to its metabolites ([1]; estimate, metabolites only detected upon 10-fold concentration): at least 10 fold
- MMAE recovered in urine and feces ([1]; of MMAE received during a brentuximab vedotin 1.8 mg/kg infusion, over a 1-week period, n=8): ~ 23.5%
- percentage of recovered MMAE excreted in feces, median ([1]; over 1 week after brentuximab vedotin 1.8 mg/kg, remainder in urine): 72%
- MMAE AUC0-∞ ([2]; brentuximab vedotin 1.8 mg/kg IV alone, plasma, geometric mean (%CV), n=14): 40.06 (53) d·ng/mL
- MMAE t1/2 ([2]; brentuximab vedotin 1.8 mg/kg alone, geometric mean (%CV), n=14): 3.71 (19) d
- MMAE Tmax ([2]; brentuximab vedotin 1.8 mg/kg alone, n=14): 3.00 (0.99, 5.01) ^a d
- MMAE Cmax ([2]; brentuximab vedotin 1.8 mg/kg alone, plasma, geometric mean (%CV), n=14): 4.98 (67) ng/mL
- MMAE exposures lower when rifampin was coadministered ([2]; brentuximab vedotin 1.8 mg/kg with rifampin vs alone): ~ 46%
- MMAE t1/2 ([2]; brentuximab vedotin 1.8 mg/kg with rifampin, geometric mean (%CV), n=14): 3.66 (17) d
- MMAE Tmax ([2]; brentuximab vedotin 1.8 mg/kg with rifampin, n=14): 1.49 (0.33, 4.02) ^a d
- MMAE Cmax ([2]; brentuximab vedotin 1.8 mg/kg with rifampin, plasma, geometric mean (%CV), n=14): 2.80 (36) ng/mL
- CYP3A induction (in vitro studies) [3]: does not induce CYP3A
- MMAE exposures lower than those of the ADC [4]: ~ 2000 fold
- MMAE AUC0-∞ ([5]; brentuximab vedotin 1.2 mg/kg IV alone, plasma, geometric mean (%CV), n=14): 26.65 (71) d·ng/mL
- MMAE t1/2 ([5]; brentuximab vedotin 1.2 mg/kg alone, geometric mean (%CV), n=14): 3.06 (13) d
- MMAE Tmax ([5]; brentuximab vedotin 1.2 mg/kg alone): 1.97 (0.97, 6.99) ^a d
- MMAE Cmax ([5]; brentuximab vedotin 1.2 mg/kg alone, plasma, geometric mean (%CV)): 4.11 (71) ng/mL
- MMAE exposures higher when ketoconazole was coadministered ([5]; brentuximab vedotin 1.2 mg/kg with ketoconazole vs alone): ~ 34%
- MMAE t1/2 ([5]; brentuximab vedotin 1.2 mg/kg with ketoconazole, geometric mean (%CV), n=14): 3.47 (66) d
- MMAE Tmax ([5]; brentuximab vedotin 1.2 mg/kg with ketoconazole): 2.45 (0.22, 4.06) ^a d
- MMAE Cmax ([5]; brentuximab vedotin 1.2 mg/kg with ketoconazole, plasma, geometric mean (%CV)): 5.13 (114) ng/mL
- potential increase of MMAE AUC0-∞ by coadministration of ketoconazole ([5]; in Cycle 1, exploratory analysis of the period effect): ~ 73%
- expected increase in MMAE levels with ketoconazole ([5]; later cycles, relative to Cycle 1 MMAE levels without ketoconazole): ≤ 38%
- inhibition or induction of CYP3A in humans (conclusion) [6]: neither inhibitors nor inducers of CYP3A; also recorded: neither an inhibitor nor inducer of CYP3A
